Assays:
wheat germ NMT = assay: in vitro myristoylation assay with partially purified wheat germ NMT; format: biochemical; details: fatty acid or analog at 5 μM, peptide varied; read-out: Km of peptide substrate Gly-Asn-Ala-Ala-Ser-[125I]Tyr-Arg-Arg
Experimental: Myristoyl CoA and fatty acid analog CoA were generated by incubation of the fatty acid or analog with CoA, ATP and CoA ligase. This reaction mixture was added to wheat germ NMT and Gly-Asn-Ala-Ala-Ser- [^125 I]Tyr-Arg-Arg in the presence of 0.03% Triton® X-100. Reaction products were characterized by reverse phase HPLC and gamma counting.
The invention is illustrated in greater detail in the following Examples 1 to 15 by the synthesis and testing of representative compounds of the invention as myristoylating enzyme substrates. Accordingly, the invention is first illustrated in Examples 1 to 5 by the chemical synthesis of a sulfur-containing analog of myristic acid, namely 11-(ethylthio)undecanoicacid, CH3 CH2 --S--(CH2)10 COOH, which is then tested in vitro as a wheat germ NMT substrate. Wheat germ NMT is a protein similar to yeast NMT. The purity and chemical identity of the synthesized compound were examined using ^1 H and ^13 C NMR as well as mass spectroscopy. The assay that was used to characterize the substrate specificity of wheat germ NMT measures the rate of attachment of a radiolabelled fatty acid to an unlabelled peptide. The fatty acid analog synthesized was nonradioactive.
Characterization of Partially Purified Wheat Germ NMT--Assays for NMT activity were performed using a procedure detailed previously by Towler and Glaser, Proc. Natl. Acad. Sci. USA 83, 2812-2816 (1986). Briefly, the in vitro assay measures the transfer of radiolabelled fatty acid from acyl CoA to a synthetic peptide substrate. The acylpeptide product is identified by reverse phase HPLC. Time and enzyme dependence were evaluated by varying the reaction time or the enzyme concentration. […] Fatty acid specificity was examined essentially as described by Towler et al., J. Biol. Chem. 262, 1030-1036 (1987), except that the peptide Gly-Ser-Ser-Lys-Ser-Lys-Pro-Lys rather than Gly-Asn-Ala-Ala-Ala-Ala-Arg-Arg was used to compare palmitate and myristate utilization by wheat germ NMT. This was necessary because of the presence of a large, peptide-independent peak which co-eluted with a palmitoyl-Gly-Asn-Ala-Ala-Ala-Ala-Arg-Arg standard. [^3 H]Palmitate and [^3 H]myristate were used in this comparison. [^14 C]fatty acids were used to compare C-10, C-12 and C-14 chain lengths. Fatty acyl CoA concentrations in these assays were determined by a modification of the method of Hosaka et al., Methods Enzymol. 71, 325-333 (1981).
Characterization of the Fatty Acid Analog--Gly-Asn-Ala-Ala-Ser-[^125 I]Tyr-Arg-Arg as prepared in Example 2, above, was tested in an in vitro myristoylation system which was modified from that used with radiolabelled fatty acids. […] 20-fold more wheat germ NMT (480-fold purified as in Example 3, above) was used for these assays than for assays which employed [^3 H] myristate. […] Double reciprocal plots were generated for the iodinated peptide with both myristic acid and the sulfur analog by altering the peptide concentration in the presence of a constant amount of fatty acid or analog. […] The assays contained 0.03% Triton X-100 to maintain the solubility of the fatty acids.

[1] = system: yeast myristoylprotein of Mr 20 kDa; assay: competition for [3H]myristate incorporation into yeast acylprotein in vivo; format: cell-based; details: Saccharomyces cerevisiae, 0.75 h, read-out: reduction in incorporation of [3H]myristate into yeast myristoylprotein of Mr 20 kDa
Experimental: (§1) Saccharomyces cerevisiae strain BJ405 [MATα, trpl, prbl, prcl, pep4-3; Hemmings et al., Proc. Natl. Acad. Sci. USA 78, 435-439 (1981)] (previously referred to as JR153) was grown to mid-log phase (OD660 nm =1.0-1.2) in YPD medium (1% yeast extract/2% Bactopeptone/2% Dextrose) at 30° C. in a rotary shaker water bath. Cells were pretreated with Cerulenin at 2 μg/ml for 15 minutes and then incubated for 20-45 minutes with unlabeled myristate, palmitate or fatty acid analog at 100 μM in the presence of either 5 μM [9,10-^3 H(N)]-myristate (22.4 Ci/mmol) or L-[^35 S]methionine (1106 Ci/mmol) at 30 μCi/ml of culture.
(§2) Cells were cooled on ice 5 minutes, pelleted at 10,000×g, then broken and extracted by the method of Towler et al., Proc. Natl. Acad. Sci. USA 83, 2812-2816 (1986). Total protein synthesis was assayed by trichloroacetic acid (TCA) precipitation. Proteins were separated by SDS-12% polyacrylamide gel electrophoresis, and [^3 H]fatty acid incorporation into cellular acyl-proteins was assayed by autoradiography followed by laser densitometry.

[2] = growth, toxicity and total protein synthesis in yeast cells; format: cell-based; details: s. cerevisiae bj405, vs control cells not exposed to exogenous fatty acid, read-out: reduction in total protein synthesis ([35S]methionine into TCA precipitable protein)
Experimental: as §1, §2

What does the source list for CCCCCCCCCCCCCC(=O)O [myristic acid, reference compound]?
Km (wheat germ NMT): 3 µM; inhibition at 100 µM [1]: 75 to 80%; inhibition at 100 µM [2]: 10 to 15%

Reference: patent US5959145A, “Fatty acid analog enzyme substrates” (priority 1993, dated 1999)
